Where two headings read alike, the source gives them in different places.
Columns and labels:
[1] = biological target: T1, LiTryR (Leishmania infantum, UniProt A4HSF7); experiment: biochemical; assay type: biochemical; details: LiTryR; 1 μM TS2; maximum assayed 75 μM; read-out: IC50^act, TryR oxidoreductase activity
T1 construct: HIS (N); made in house; host or cells: E. coli BL21 (DE3) Rossetta
Protocol: A concentration of 1 μM TS2 was used for this initial screening. This low substrate concentration is sufficient for comparison of compound inhibitory activity in the oxidoreductase assay.
Recombinant L. infantum TryR (LiTryR) HIS-tagged and HIS-FLAG-tagged versions were used for all LiTryR oxidoreductase activity and dimer quantitation assays. These LiTryR versions were purified from Escherichia coli as previously described.[25] Briefly, pRSETA-HIS-LiTryR construct alone or in combination with the pET24a-FLAG-LiTryR construct was transformed into BL21 (DE3) Rossetta E. coli strain. An overnight E. coli culture grown at 37 °C in Luria–Bertani (LB) medium with the appropriate antibiotics and vigorous shaking was diluted (1:100) in the same medium and allowed to grow in the same conditions until the OD600 was 0.5. Then, LiTryR expression was induced by addition of 1 mM isopropyl-β-D-1-thiogalactopyranoside (IPTG) for 16 h at 26 °C. The cells were centrifuged for 5 min at 9000g and 4 °C and the wet pellet resuspended in lysis buffer (50 mM Tris, pH 7, 300 mM NaCl, 25 mM imidazole, protease inhibitor cocktail, and 1 mg/mL lysozyme). […] The supernatant was sonicated again as previously described for 10 min and loaded on a HisTrap column (GE Healthcare, Chicago, IL) for 16 h at 4 °C using a P-1 peristaltic pump (GE Healthcare, Chicago, IL). Once loaded, the HisTrap column was connected to an ÄKTA purifier UPC 10 (GE Healthcare, Chicago, IL) and washed using a 5–10% gradient between buffer A (50 mM Tris, pH 7 and 300 mM NaCl) and B (50 mM Tris, pH 7, 300 mM NaCl, and 500 mM imidazole). LiTryR was eluted using a 40% gradient between buffers A and B. Fractions containing recombinant LiTryR were pooled and loaded into a HiPrep 26/10 Desalting column (GE Healthcare, Chicago, IL) previously equilibrated with buffer A. Finally, LiTryR was concentrated to 2 mg/mL using an Amicon Ultra-15 50K (Merck Millipore, Burlington, MA) and an equal volume of glycerol was added before storing at −20 °C.
TryR oxidoreductase activity was determined spectrophotometrically using a modified version of the DTNB-coupled assay described by Hamilton et al.[52] Briefly, reactions were carried out at 26 °C in 250 μL of N-(2-hydroxyethyl)piperazine-N′-ethanesulfonic acid (HEPES) buffer (pH 7.5, 40 mM) containing ethylenediaminetetraacetic acid (EDTA) (1 mM), NADP^+ (30 μM), DTNB (25 μM), TS2 (1 μM), NADPH (150 μM), glycerol (0.02%), DMSO (1.75%), and recombinant TryR (7 nM). […] Reactions were started by addition of a mixture of NADPH and TS2.
TryR oxidoreductase activity was monitored at 26 °C by an increase in absorbance at 412 nm in an EnSpire Multimode Plate Reader (PerkinElmer, Waltham, MA). […] (TNB) concentration was obtained by multiplying the absorbance values by 100 (50 μM TNB generates 0.5 arbitrary units of absorbance at 412 nm). In this DTNB-coupled assay, one molecule of T(SH)2 reduces one molecule of DTNB, producing two TNB molecules. All of the assays were conducted in at least three independent experiments. Data were analyzed using a nonlinear regression model with GraFit 6 software (Erithacus, Horley, Surrey, U.K.).

[2] = biological target: T2, LiTryR dimer (Leishmania infantum, UniProt A4HSF7); experiment: biochemical; details: 400 nM LiTryR, 16 h at 37 °C; read-out: IC50^dim, LiTryR monomer displacement (dimer quantitation ELISA)
T2 construct: made in house; host or cells: E. coli BL21 (DE3) Rossetta (co-transformed with both plasmids)
Protocol: The stability of the LiTryR dimeric form in the presence of 1,2,3-triazole-phenyl-thiazole-based compounds was evaluated using the novel enzyme-linked immunosorbent assay (ELISA) developed in our laboratory.[25] […] Next, the different solutions were centrifuged at 18 000g for 15 min at room temperature. The supernatants (200 μL/well) were added to the α-FLAG-coated plates (Sigma-Aldrich, St. Louis, MO) and incubated for 30 min at 37 °C with agitation in a humid atmosphere. The plates were washed five times with TTBS buffer (2 mM Tris, pH 7.6, 138 mM NaCl, and 0.1% Tween-20) and incubated with diluted monoclonal α-HIS horseradish peroxidase (HRP)-conjugated antibody (200 μL, 1:50 000, Abcam, Cambridge, U.K.) in fatty acid- and essentially globulin-free bovine serum albumin (BSA) (5%) prepared in TTBS buffer for 1 h at room temperature. The plates were washed five times, and o-phenylenediamine dihydrochloride (OPD) substrate prepared according to the manufacturer’s instructions was added. The enzymatic reaction was stopped after 5 min with H2SO4 (100 μL, […]), and the absorbances were measured at 490 nm in an EnSpire Multimode Plate Reader (PerkinElmer, Waltham, MA). All of the assays were conducted in triplicate in at least three independent experiments. Data were analyzed using a nonlinear regression model with GraFit 6 software (Erithacus, Horley, Surrey, U.K.).

[3] = test system: HepG2 cells; experiment: Cellular toxicity, crystal violet assay; assay type: cell-based; details: Homo sapiens, HepG2; 24 h, crystal violet method; read-out: EC50 HepG2
Protocol: Liver hepatocellular carcinoma HepG2 cells were grown in Dulbecco’s modified Eagle’s medium (DMEM) (Sigma-Aldrich, St. Louis, MO) with 10% heat-inactivated FCS, antibiotics, and 10 mM HEPES.
Drug treatment of liver hepatocellular carcinoma HepG2 cells was performed at a concentration of 10^5 cells/mL at 37 °C and 5% CO2 for 24 h. EC50 was evaluated by the crystal violet assay. Briefly, cells were washed with phosphate-buffered saline (PBS) and stained with 200 μL of crystal violet solution (0.2% crystal violet, 2% ethanol) for 10 min at room temperature. Next, the plates were washed twice with tap water and allowed to dry. The stained cells were solubilized with 400 μL of 1% sodium dodecyl sulfate (SDS), and the color intensity was quantified at 570 nm using an EnSpire Multimode Plate Reader (PerkinElmer, Waltham, MA). All of the assays were conducted in triplicate in at least three independent experiments. Data were analyzed using a nonlinear regression model with GraFit 6 software (Erithacus, Horley, Surrey, U.K.).

[4] = test system: L. infantum axenic amastigotes; experiment: Leishmanicidal activity on axenic amastigotes (PI exclusion, flow cytometry); assay type: cell-based, Leishmania infantum; details: for SIa (ratio of EC50 against human cells to EC50 against amastigotes): HepG2 / axenic amastigotes; for EC50: Leishmania infantum, axenic amastigotes, 24 h at 37 °C, read-out: EC50 amastigotes
Protocol: (§1) L. infantum promastigotes (MCAN/ES/89/IPZ229/1/89) were grown in Roswell Park Memorial Institute (RPMI)-1640 medium (Sigma-Aldrich, St. Louis, MO) supplemented with 10% heat-inactivated fetal calf serum (FCS), antibiotics, and 25 mM HEPES (pH 7.2) at 26 °C. L. infantum axenic amastigotes (MCAN/ES/89/IPZ229/1/89) were grown in M199 medium (Invitrogen, Leiden, The Netherlands) supplemented with 10% heat-inactivated FCS, 1 g/L β-alanine, 100 mg/L L-asparagine, 200 mg/L sucrose, 50 mg/L sodium pyruvate, 320 mg/L malic acid, 40 mg/L fumaric acid, 70 mg/L succinic acid, 200 mg/L α-ketoglutaric acid, 300 mg/L citric acid, 1.1 g/L sodium bicarbonate, 5 g/L morpholineethanesulfonic acid (MES), 0.4 mg/L hemin, and 10 mg/L gentamicine, pH 5.4, at 37 °C.
Axenization was performed by diluting 0.5 mL of a 7-day stationary phase culture of L. infantum promastigotes (2–3 × 10^7 parasites/mL) in 4.5 mL of amastigotes medium and incubating the culture at 37 °C for 2 or 3 days. L. infantum axenic amastigotes apparition was followed by phase-contrast microscopy using an Eclipse Ti inverted microscope (Nikon, Tokyo, Japan).
(§2) Drug treatment of L. infantum promastigotes was performed during the logarithmic growth phase at a concentration of 2 × 10^6 parasites/mL at 26 °C for 24 h. […] EC50 was evaluated by flow cytometry by the propidium iodide (PI) exclusion method. After selection of the parasite population based on their forward scatter (FSC) and side scatter (SSC) values, live and dead parasite cells were identified by their permeability to PI. All of the assays were conducted in triplicate in at least three independent experiments. Data were analyzed using a nonlinear regression model with GraFit 6 software (Erithacus, Horley, Surrey, U.K.).

[5] = test system: L. infantum promastigotes; experiment: Leishmanicidal activity on promastigotes (PI exclusion, flow cytometry); assay type: cell-based, Leishmania infantum; details: for SIp (ratio of EC50 against human cells to EC50 against promastigotes): HepG2 / promastigotes; for EC50: Leishmania infantum
Protocol: as §1, §2

[6] = 24 h at 26 °C, read-out: EC50 promastigotes
[7] = promastigotes or amastigotes (either form), read-out: EC50 against Leishmania promastigotes or amastigotes

T1 sequence (A4HSF7 1-491): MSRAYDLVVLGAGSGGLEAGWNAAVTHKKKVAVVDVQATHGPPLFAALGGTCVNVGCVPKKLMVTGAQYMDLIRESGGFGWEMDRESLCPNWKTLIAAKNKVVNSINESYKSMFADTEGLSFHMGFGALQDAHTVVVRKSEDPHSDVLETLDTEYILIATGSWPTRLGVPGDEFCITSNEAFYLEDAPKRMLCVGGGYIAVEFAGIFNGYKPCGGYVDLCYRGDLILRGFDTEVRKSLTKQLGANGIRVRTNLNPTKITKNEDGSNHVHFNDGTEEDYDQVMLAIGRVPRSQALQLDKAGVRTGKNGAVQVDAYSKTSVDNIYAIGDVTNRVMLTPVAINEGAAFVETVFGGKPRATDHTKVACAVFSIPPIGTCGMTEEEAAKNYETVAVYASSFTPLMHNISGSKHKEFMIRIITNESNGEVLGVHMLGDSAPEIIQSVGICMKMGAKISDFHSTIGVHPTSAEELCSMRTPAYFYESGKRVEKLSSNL
T2 sequence (A4HSF7 1-491): as above

SMILES | IC50 [1] [µM] | IC50 [2] [µM] | EC50 [3] [µM] | SIa (ratio of EC50 against human cells to EC50 against amastigotes) [4] | EC50 [4] [µM] | SIp (ratio of EC50 against human cells to EC50 against promastigotes) [5] | EC50 [5, 6] [µM] | EC50 [5, 7] [µM]
O=C1NCCN1CCOc1cc(-n2cc(CCCCO)nn2)ccc1-c1nc(CCc2ccccc2)cs1 [12d] | > 75 | > 75 | – | – | – | – | – | –
CCCCc1cn(-c2ccc(-c3nc(CCc4ccccc4)cs3)c(OCCN3CCNC3=O)c2)nn1 [12e] | > 75 | > 75 | – | – | – | – | – | –
CCCCc1cn(-c2ccc(-c3nc(CCc4ccc(-c5ccccc5)cc4)cs3)c(OCCN3CCNC3=O)c2)nn1 [12f] | > 75 | > 75 | – | – | – | – | – | –
NCCCc1cn(-c2ccc(-c3nc(CCc4ccccc4)cs3)c(OCCN3CCNC3=O)c2)nn1.O=C(O)C(F)(F)F [12h] | 20.8 ± 2.3 | > 75 | 25.7 ± 2.2 | < 1 | 31.6 ± 5.8 | 2.0 | 12.7 ± 0.3 | –
COc1cc(-n2cc(CCCCN)nn2)ccc1-c1nc(CCc2ccccc2)cs1.O=C(O)C(F)(F)F [12j] | 20.1 ± 2.5 | > 75 | 12.4 ± 0.7 | 1.7 | 7.1 ± 0.7 | – | 8.5 ± 0.1 | –
COc1cc(-n2cc(CCCCN)nn2)ccc1-c1nc(CCc2ccc(-c3ccccc3)cc2)cs1.O=C(O)C(F)(F)F [12k] | 26.8 ± 5.7 | 16.1 ± 0.7 | 7.4 ± 0.6 | ND/1.9 | 4 ± 0.2 | – | – | –
CC(C)Oc1csc(-c2ccc(-n3cc(CCCCN)nn3)cc2OCCN2CCNC2=O)n1 [12l] | 54.5 ± 4.4 | > 75 | – | – | – | – | – | –
CC(C)(C)Cc1csc(-c2ccc(-n3cc(CCCCN)nn3)cc2OCCN2CCNC2=O)n1.O=C(O)C(F)(F)F [12m] | 24.1 ± 1.4 | > 75 | 44.9 ± 1.3 | 1.8 | 25.2 ± 0.5 | 1.0 | 42.6 ± 3.9 | –
NCCCCc1cn(-c2ccc(-c3nc(Cc4ccccc4)cs3)c(OCCN3CCNC3=O)c2)nn1 [12o] | – | – | 67.9 ± 1.5 | – | > 75 | – | > 75 | –
NCCCCc1cn(-c2ccc(-c3nc(-c4ccc(-c5ccccc5)cc4)c(-c4ccccc4)s3)c(OCCN3CCNC3=O)c2)nn1.O=C(O)C(F)(F)F [19b, 1-(2-(5-(4-(4-Ammoniobutyl)-1H-1,2,3-triazol-1-yl)-2-(4-([1,1′-biphenyl]-4-yl)-5-phenylthiazol-2-yl)phenoxy)ethyl)imidazolidin-2-one 2,2,2-Trifluoroacetate] | 18.4 ± 3.9 | 11.3 ± 0.2 | 17.3 ± 0.1 | ND/1.8 | 9.4 ± 0.5 | – | – | < 10
NCCCCc1cn(-c2ccc(-c3nc(CCc4ccc(-c5ccccc5)cc4)c(-c4ccccc4)s3)c(OCCN3CCNC3=O)c2)nn1.O=C(O)C(F)(F)F [19d, 1-(2-(2-(4-(2-([1,1′-Biphenyl]-4-yl)ethyl)-5-phenyl-thiazol-2-yl)-5-(4-(4-ammoniobutyl)-1H-1,2,3-triazol-1-yl)phenoxy)ethyl)imidazolidin-2-one 2,2,2-Trifluoroacetate] | 19.8 ± 2.3 | 5.7 ± 0.5 | 12.1 ± 0.1 | ND/1.3 | 9.1 ± 0.2 | – | – | < 10
O=C1NCCN1CCOc1cc(Br)ccc1-c1nc(CCc2ccccc2)cs1 [compound 13] | > 75 | > 75 | – | – | – | – | – | –
N#Cc1ccc(-n2cc(CCCCN)nn2)cc1OCCN1CCNC1=O [compound 14] | > 75 | > 75 | – | – | – | – | – | –
